# From PubChem BioAssay AID2060489 (Molecular Pharmacology Branch, DTP, NCI, 2025)
# Test system: 922993-354-T-J3-PDC complex spheroids, viability
# Experiment: Anticancer human tumor 922993-354-T-J3-PDC patient-derived endometrial carcinoma cell line growth inhibition [GQUAD]
# Settings: for IC50: curve of first compound; for viability, T/C: stronger effect = lower value
# Method in brief: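 Multi-cell-type spheroids of tumor cells with HUVEC and mesenchymal stem cells, treated with drug combinations. Concentrations descend in half-log steps from near clinical Cmax, or from 10 microM where Cmax is unknown; viability read-out.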
# [1] = second compound 0.0316 µM, first compound 0.0316 µM
# [2] = second compound 0.0316 µM, first compound 0.1 µM
# [3] = second compound 0.0316 µM, first compound 0.316 µM
# [4] = second compound 0.0316 µM, first compound 1 µM
# [5] = second compound 0.0316 µM, first compound 3.16 µM
# [6] = second compound 0.0316 µM, first compound 10 µM
# [7] = second compound 0.1 µM, first compound 0.0316 µM
# [8] = second compound 0.1 µM, first compound 0.1 µM
# [9] = second compound 0.1 µM, first compound 0.316 µM
# [10] = second compound 0.1 µM, first compound 1 µM
# [11] = second compound 0.1 µM, first compound 3.16 µM
# [12] = second compound 0.1 µM, first compound 10 µM
# [13] = second compound 0.316 µM, first compound 0.0316 µM
# [14] = second compound 0.316 µM, first compound 0.1 µM
# [15] = second compound 0.316 µM, first compound 0.316 µM
# [16] = second compound 0.316 µM, first compound 1 µM
# [17] = second compound 0.316 µM, first compound 3.16 µM
# [18] = second compound 0.316 µM, first compound 10 µM
# [19] = second compound 1 µM, first compound 0.0316 µM
# [20] = second compound 1 µM, first compound 0.1 µM
# [21] = second compound 1 µM, first compound 0.316 µM
# [22] = second compound 1 µM, first compound 1 µM
# [23] = second compound 1 µM, first compound 3.16 µM
# [24] = second compound 1 µM, first compound 10 µM
# [25] = second compound 3.16 µM, first compound 0.0316 µM
# [26] = second compound 3.16 µM, first compound 0.1 µM
# [27] = second compound 3.16 µM, first compound 0.316 µM
# [28] = second compound 3.16 µM, first compound 1 µM
# [29] = second compound 3.16 µM, first compound 3.16 µM
# [30] = second compound 3.16 µM, first compound 10 µM
# [31] = second compound 10 µM, first compound 0.0316 µM
# [32] = second compound 10 µM, first compound 0.1 µM
# [33] = second compound 10 µM, first compound 0.316 µM
# [34] = second compound 10 µM, first compound 1 µM
# [35] = second compound 10 µM, first compound 3.16 µM
# [36] = second compound 10 µM, first compound 10 µM
# 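Note: spheroids exposed to compounds for seven days.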
# 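Throughout, for viability, T/C: 100% = DMSO vehicle control viability.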
structure (smiles),measurement,setting,value
COc1cc(C2c3cc4c(cc3C(OC3OC5COC(C)OC5C(O)C3O)C3COC(=O)C23)OCO4)cc(OC)c1O (stereo unspecified) + Cc1cnc(CNC(=O)c2c(=O)c3ccc(N4CCCN(C)CC4)nc3n3c2sc2ccccc23)cn1,IC50,second compound 0.0316 µM,> 10000 nM
same,IC50,second compound 0.1 µM,> 10000 nM
same,IC50,second compound 0.316 µM,< 31.6 nM
same,IC50,second compound 1 µM,< 31.6 nM
same,IC50,second compound 3.16 µM,< 31.6 nM
same,IC50,second compound 10 µM,< 31.6 nM
same,"viability, T/C",[1],82.3%
same,"viability, T/C",[2],60%
same,"viability, T/C",[3],60.5%
same,"viability, T/C",[4],74.5%
same,"viability, T/C",[5],50.9%
same,"viability, T/C",[6],49.9%
same,"viability, T/C",[7],62.3%
same,"viability, T/C",[8],59.1%
same,"viability, T/C",[9],53.8%
same,"viability, T/C",[10],63.6%
same,"viability, T/C",[11],62.8%
same,"viability, T/C",[12],39.9%
same,"viability, T/C",[13],44.1%
same,"viability, T/C",[14],53.2%
same,"viability, T/C",[15],38.6%
same,"viability, T/C",[16],49.7%
same,"viability, T/C",[17],41.6%
same,"viability, T/C",[18],34.3%
same,"viability, T/C",[19],46.8%
same,"viability, T/C",[20],39.9%
same,"viability, T/C",[21],49.6%
same,"viability, T/C",[22],36.1%
same,"viability, T/C",[23],36%
same,"viability, T/C",[24],43.4%
same,"viability, T/C",[25],40.6%
same,"viability, T/C",[26],47%
same,"viability, T/C",[27],39.1%
same,"viability, T/C",[28],46.6%
same,"viability, T/C",[29],52.4%
same,"viability, T/C",[30],48.2%
same,"viability, T/C",[31],47.9%
same,"viability, T/C",[32],50.3%
same,"viability, T/C",[33],45.4%
same,"viability, T/C",[34],38.2%
same,"viability, T/C",[35],43.4%
same,"viability, T/C",[36],41%
COc1cccc2c1C(=O)c1c(O)c3c(c(O)c1C2=O)CC(O)(C(=O)CO)CC3OC1CC(N)C(O)C(C)O1 (stereo unspecified) + Cc1cnc(CNC(=O)c2c(=O)c3ccc(N4CCCN(C)CC4)nc3n3c2sc2ccccc23)cn1,IC50,second compound 0.0316 µM,> 10000 nM
same,IC50,second compound 0.1 µM,3670 nM
same,IC50,second compound 0.316 µM,< 31.6 nM
same,IC50,second compound 1 µM,< 31.6 nM
same,IC50,second compound 3.16 µM,< 31.6 nM
same,IC50,second compound 10 µM,< 31.6 nM
same,"viability, T/C",[1],83.7%
same,"viability, T/C",[2],79.4%
same,"viability, T/C",[3],67.2%
same,"viability, T/C",[4],75.3%
same,"viability, T/C",[5],73.1%
same,"viability, T/C",[6],55%
same,"viability, T/C",[7],54.3%
same,"viability, T/C",[8],71.3%
same,"viability, T/C",[9],58.3%
same,"viability, T/C",[10],51.1%
same,"viability, T/C",[11],53.6%
same,"viability, T/C",[12],42%
same,"viability, T/C",[13],52.8%
same,"viability, T/C",[14],39.7%
same,"viability, T/C",[15],42.1%
same,"viability, T/C",[16],40.4%
same,"viability, T/C",[17],60.5%
same,"viability, T/C",[18],42.2%
same,"viability, T/C",[19],50.6%
same,"viability, T/C",[20],40.2%
same,"viability, T/C",[21],37.1%
same,"viability, T/C",[22],43.2%
same,"viability, T/C",[23],52.2%
same,"viability, T/C",[24],38.8%
same,"viability, T/C",[25],38.5%
same,"viability, T/C",[26],41.3%
same,"viability, T/C",[27],41.3%
same,"viability, T/C",[28],41.8%
same,"viability, T/C",[29],51%
same,"viability, T/C",[30],27.4%
same,"viability, T/C",[31],44.9%
same,"viability, T/C",[32],40.2%
same,"viability, T/C",[33],46.6%
same,"viability, T/C",[34],50.5%
same,"viability, T/C",[35],36.8%
same,"viability, T/C",[36],11.8%
Cc1cccc(N(C)C(=O)C2C(O)CCN2c2nc(C)cc(C(F)(F)F)c2C#N)c1 (stereo unspecified) + Cc1cnc(CNC(=O)c2c(=O)c3ccc(N4CCCN(C)CC4)nc3n3c2sc2ccccc23)cn1,IC50,second compound 0.0316 µM,> 10000 nM
same,IC50,second compound 0.1 µM,4160 nM
same,IC50,second compound 0.316 µM,< 31.6 nM
same,IC50,second compound 1 µM,> 10000 nM
same,IC50,second compound 3.16 µM,< 31.6 nM
same,IC50,second compound 10 µM,< 31.6 nM
same,"viability, T/C",[1],78%
same,"viability, T/C",[2],87.2%
same,"viability, T/C",[3],88%
same,"viability, T/C",[4],77.9%
same,"viability, T/C",[5],74.6%
same,"viability, T/C",[6],68.6%
same,"viability, T/C",[7],65.1%
same,"viability, T/C",[8],62.4%
same,"viability, T/C",[9],59%
same,"viability, T/C",[10],52.9%
same,"viability, T/C",[11],55.8%
same,"viability, T/C",[12],43.9%
same,"viability, T/C",[13],50.3%
same,"viability, T/C",[14],42.7%
same,"viability, T/C",[15],43.4%
same,"viability, T/C",[16],53.7%
same,"viability, T/C",[17],45.5%
same,"viability, T/C",[18],47.1%
same,"viability, T/C",[19],54.7%
same,"viability, T/C",[20],59%
same,"viability, T/C",[21],54.4%
same,"viability, T/C",[22],46.1%
same,"viability, T/C",[23],57.8%
same,"viability, T/C",[24],53.5%
same,"viability, T/C",[25],50.9%
same,"viability, T/C",[26],44.4%
same,"viability, T/C",[27],41.3%
same,"viability, T/C",[28],46.1%
same,"viability, T/C",[29],51.1%
same,"viability, T/C",[30],44.6%
same,"viability, T/C",[31],39.6%
same,"viability, T/C",[32],48.5%
same,"viability, T/C",[33],56.8%
same,"viability, T/C",[34],39.1%
same,"viability, T/C",[35],50.6%
same,"viability, T/C",[36],41.4%
